Where a name gives a salt, the structure may show the parent alone.
Columns and labels:
[1] = target: T1, MerTK (Mus musculus, UniProt Q60805); assay: MerTK degradation in RAW264 cells (Western blot); format: cell-based; details: RAW264.7, 0.001-1 μM, 4 hour-incubation at 37° C., read-out: RAW264 Max % MerTK Degradation
T1 construct: endogenous in cells; host or cells: RAW264 cells
T1 sequence (Q60805 19-994): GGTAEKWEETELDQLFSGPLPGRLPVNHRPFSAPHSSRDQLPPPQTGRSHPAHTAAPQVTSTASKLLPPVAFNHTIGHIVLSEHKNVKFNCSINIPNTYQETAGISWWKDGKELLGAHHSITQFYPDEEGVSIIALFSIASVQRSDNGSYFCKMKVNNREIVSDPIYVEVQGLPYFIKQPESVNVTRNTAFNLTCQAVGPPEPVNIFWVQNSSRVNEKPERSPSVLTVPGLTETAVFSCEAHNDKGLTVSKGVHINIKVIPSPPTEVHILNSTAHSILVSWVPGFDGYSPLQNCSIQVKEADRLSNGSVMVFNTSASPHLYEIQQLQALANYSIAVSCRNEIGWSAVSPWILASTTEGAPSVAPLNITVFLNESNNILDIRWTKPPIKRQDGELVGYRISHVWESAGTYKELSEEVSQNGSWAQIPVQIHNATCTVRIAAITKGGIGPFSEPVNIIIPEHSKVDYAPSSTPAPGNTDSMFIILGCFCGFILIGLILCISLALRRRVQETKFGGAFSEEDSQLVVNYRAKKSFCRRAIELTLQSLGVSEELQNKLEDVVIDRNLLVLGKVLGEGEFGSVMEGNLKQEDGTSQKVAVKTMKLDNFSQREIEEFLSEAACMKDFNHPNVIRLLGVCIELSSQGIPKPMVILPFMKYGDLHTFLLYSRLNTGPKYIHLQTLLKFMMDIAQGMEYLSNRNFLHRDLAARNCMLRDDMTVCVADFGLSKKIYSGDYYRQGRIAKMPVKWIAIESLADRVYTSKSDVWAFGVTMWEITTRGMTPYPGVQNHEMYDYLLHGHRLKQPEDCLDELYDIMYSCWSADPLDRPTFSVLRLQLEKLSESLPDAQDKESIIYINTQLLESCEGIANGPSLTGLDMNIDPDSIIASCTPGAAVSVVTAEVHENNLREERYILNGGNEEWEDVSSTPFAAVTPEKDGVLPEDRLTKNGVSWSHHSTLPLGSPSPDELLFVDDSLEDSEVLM
Description: Compounds were reconstituted in DMSO to make 10 mM stock solutions. RAW264 cells were maintained in DMEM medium containing 10% FBS. Cells were seeded into 6-well plates with 2×10^6 cells per well. 2 μL of diluted compounds were added to cells to the final concentration of 0.001-1 μM. After a 4 hour-incubation at 37° C., cells were washed with DPBS (1×) once. Then RIPA lysis buffer with Halt Protease and Phosphatase Inhibitor Cocktail was added directly to the cells and cells were then incubated on ice for 10 min, then lysate was harvested into 1.5 mL Eppendorf tubes and centrifuged at 14,000 rpm for 10 min at 4° C. and the supernatants were collected for Western blots.
The protein concentration of cell lysates was quantified with Pierce™ BCA Protein Assay Kit. […] BCA working reagents were prepared by mixing BCA reagent A with reagent B in 50: 1 ratio. 200 μL of the BCA working reagents were added to 25 μL of BCA standard or cell lysates in microplate, and mixed thoroughly on a plate shaker for 30 seconds. After incubation at 37° C. for 30 min, the absorbance of samples at 562 nm were measured with EnVision Plate Reader.
Protein lysates were prepared in NuPAGE™ LDS sample buffer and NuPAGE™ sample reducing agent, and incubated at 95° C. for 5 min. […] The proteins were transferred to low fluorescence PVDF membranes using the Trans-Blot Turbo Transfer System. Membranes were then blocked in Odyssey blocking buffer at RT for 1 h followed by primary incubation at 4° C. overnight. The primary antibodies were MerTK goat polyclonal antibody and actin mouse monoclonal antibody. Membranes were washed three times with TBST (1×), and then incubated with IR Dye 800 CW Donkey anti-goat and IR Dye 700 CW Goat anti-mouse secondary antibodies in 1:10,000 dilution at RT for 1 h. The Western blot images were obtained using Odyssey Imaging System.

[2] = target: T2, MerTK (Homo sapiens, UniProt Q12866); assay: MerTk degradation in Jurkat cells (Western blot); format: cell-based; details: Jurkat, 4 h, 0.001-1 μM, 4 hour-incubation at 37° C., read-out: Jurkat Max % MerTK Degradation
T2 construct: endogenous in cells; host or cells: Jurkat cells
T2 sequence (Q12866 21-999): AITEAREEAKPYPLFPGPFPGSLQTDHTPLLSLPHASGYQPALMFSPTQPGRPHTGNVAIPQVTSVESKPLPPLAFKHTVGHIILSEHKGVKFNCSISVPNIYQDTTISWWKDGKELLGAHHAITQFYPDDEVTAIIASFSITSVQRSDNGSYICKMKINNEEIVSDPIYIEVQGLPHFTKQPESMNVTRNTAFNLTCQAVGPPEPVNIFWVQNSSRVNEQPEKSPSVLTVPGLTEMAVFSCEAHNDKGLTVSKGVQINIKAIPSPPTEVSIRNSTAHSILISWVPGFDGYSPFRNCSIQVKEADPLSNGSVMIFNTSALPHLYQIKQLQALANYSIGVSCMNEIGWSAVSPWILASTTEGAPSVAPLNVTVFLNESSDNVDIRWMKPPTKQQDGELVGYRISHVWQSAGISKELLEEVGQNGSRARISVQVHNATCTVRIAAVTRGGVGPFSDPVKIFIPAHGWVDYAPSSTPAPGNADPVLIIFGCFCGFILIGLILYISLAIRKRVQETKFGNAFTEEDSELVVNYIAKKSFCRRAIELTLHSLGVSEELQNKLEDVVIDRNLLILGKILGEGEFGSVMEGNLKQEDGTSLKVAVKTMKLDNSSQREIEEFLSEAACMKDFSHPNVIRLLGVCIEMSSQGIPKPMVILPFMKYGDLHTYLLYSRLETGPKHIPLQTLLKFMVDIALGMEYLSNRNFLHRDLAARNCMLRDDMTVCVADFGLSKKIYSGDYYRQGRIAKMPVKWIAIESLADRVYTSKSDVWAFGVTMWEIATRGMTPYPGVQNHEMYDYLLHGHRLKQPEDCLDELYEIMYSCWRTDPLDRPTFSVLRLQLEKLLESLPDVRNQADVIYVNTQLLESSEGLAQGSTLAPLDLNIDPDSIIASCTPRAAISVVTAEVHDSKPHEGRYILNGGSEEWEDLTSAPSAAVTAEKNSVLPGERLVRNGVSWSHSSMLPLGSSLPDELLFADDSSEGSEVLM
Summary of the method: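 Jurkat cells treated 4 h at 37 °C with compound at 0.001-1 μM final. RIPA lysates quantified by BCA, then MerTK probed by Western blot against actin loading control with IR-dye secondaries and Odyssey imaging.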

In the case of Cc1ccc(CNc2ncc3c(-c4ccc(CN5CCN(CCOCCOCCOCCOCCNc6cccc7c6C(=O)N(C6CCC(=O)NC6=O)C7=O)CC5)cc4)cn([C@H]4CC[C@H](O)CC4)c3n2)cc1 (stereo partly drawn) [I-26, 2-(2,6-Dioxopiperidin-3-yl)-4-[15-(4-[[4-(2-[[(4-methylphenyl)methyl]amino]-7-[trans-4-hydroxycyclohexyl]-7H-pyrrolo[2,3-d]pyrimidin-5-yl)phenyl]methyl]piperazin-1-yl)-4,7,10,13-tetraoxa-1-azapentadecan-1-yl]-2,3-dihydro-1H-isoindole-1,3-dione formate], the Dmax [1] is reported as > 50% and the Dmax [2] is reported as > 50%.

From patent US20260042762A1 (Kymera Therapeutics, Inc., priority 2018, published 2026)
